# Tests used:
# [1] = test system: transplanted tumor of HT-29 cells; test: HT-29 transplanted tumor in nude mice; details: for Inhibition Rate (%) / Tumor Weight: HT-29 nude mice; for Tumor Volume (mm3) (d30): d 30
# Experimental: (§1) Then cell concentration was adjusted to 1×10^7/ml with matrigel, then each nude mouse was inoculated subcutaneously with 0.2 ml of cells at its right armpit and recorded as the first day of inoculation. When the tumor grows to be greater than or equal to 100 mm^3, the mice were randomly divided into 11 groups with 6 mice in each group: isovaleryl spiramycin I groups with doses of 25, 50 and 100 mg/kg, isovaleryl spiramycin II groups with doses of 25, 50 and 100 mg/kg, and isovaleryl spiramycin III groups with doses of 25, 50 and 100 mg/kg. Each group was continuously administered intragastrically for 30 days with a dose of 20 ml/kg. The mice were sacrificed the next day after drug withdrawal and the indicators were tested. The long diameter and short diameter of the tumor, and the body weight of each mouse were recorded every 3 days from drug administration to nude mouse sacrifice.
# (§2) The body weight of the nude mice and the long diameter (a) and short diameter (b) of the transplanted tumor were measured every 3 days, and the tumor volume (v), relative tumor volume (RTV) and relative tumor proliferation rate (T/C) are calculated respectively according to the following formulas, wherein V=a×b^2/2; RTV=V/V0 (V0 is the tumor volume before administration, V is the tumor volume before sacrifice), and T/C (%)=treatment group RTV/model control group RTV×100%.
# (§3) Each mouse was weighed and sacrificed. After the tumor was completely stripped off from the body of the mouse, the non-tumor tissues such as blood stains and fat were removed to weigh the tumor and calculate the tumor growth inhibition rate. The average tumor weight of each group of mice is used as an indicator of efficacy. Tumor growth inhibition rate (%)=(1−the average tumor weight of the treatment group/the average tumor weight of the model group)×100%.
# [2] = test system: transplanted tumor of human prostate cancer cell PC3; test: PC3 transplanted tumor in nude mice
# Experimental: as §1, with “group: a model group, a cyclophosphamide group,” for “group:”
# as §2, §3
# [3] = test system: transplanted tumor of human breast cancer cell MDA-MB-231; test: MDA-MB-231 transplanted tumor in nude mice
# Experimental: as §1, with “group: a model group, a cyclophosphamide group,” for “group:”
# as §2, §3
# [4] = test system: human promyelocytic leukemia cell HL-60; details: HL-60, MTT, 48 h
# Experimental: (§4) The purpose of the assay is to evaluate the in vitro cell proliferation inhibition or cytotoxic activity of a tested sample.
# (§5) U937 and HL-60 were suspension cells, and cells in a logarithmic growth phase were selected and prepared into a 2×10^5/ml cell suspension by a RPMI 1640 culture medium containing 10% fetal bovine serum. And the cell suspension was inoculated in a 96-well culture plate, and each well was 50 μL and the 96-well culture plate was cultured at 37° C. and 5% CO2 for 24 hours. 50 μL of a culture medium containing different concentrations of the tested sample isovaleryl spiramycin I, isovaleryl spiramycin II, or isovaleryl spiramycin III was added in the experimental group, while a culture medium containing the same volume of solvent was added into the control group. Each group was set up with 3 parallel wells that were cultured at 37° C. and 5% CO2 for 48 h. And 10 μL of freshly prepared medium containing 5 mg/ml MTT was added into each well for continuous incubation for 4 hours at 37° C. The crystals were dissolved in 100 μL of a triple solution (SDS 10 g, 10 M HCl 0.1 mL, isobutanol 5 mL, diluted with distilled water to 100 mL), and incubated at 37° C. for 12 hours. The optical density value was measured at 492 nm with a microplate reader.
# (§6) The inhibition rate of the medicament on tumor cell growth is calculated according to the following formula:
# (§7) Tumor cell growth inhibition rate (%)=[A492 (negative control)−A492 (dosing group)]/A492 (negative control)×100%
# (§8) And the half-inhibitory concentration (IC50) of the sample is determined therefrom.
# [5] = test system: human tissue lymphoma cell U937; details: U937, MTT, 48 h
# Experimental: as §4, §5, §6, §7, §8
# [6] = HT-29, high dose (100 mg/kg in method) i.g. 30 days
# [7] = HT-29, low dose (25 mg/kg in method) i.g. 30 days
# [8] = HT-29, medium dose (50 mg/kg in method) i.g. 30 days
# [9] = PC3, 25 mg/kg (low dose) i.g. 30 days
# [10] = PC3, 50 mg/kg (medium dose) i.g. 30 days
# [11] = PC3, 100 mg/kg (high dose) i.g. 30 days
# [12] = MDA-MB-231, 25 mg/kg (low dose) i.g. 30 days
# [13] = MDA-MB-231, 50 mg/kg (medium dose) i.g. 30 days
# [14] = MDA-MB-231, 100 mg/kg (high dose) i.g. 30 days
structure (smiles),measurement,setting,value
"CO[C@@H]1[C@@H](O[C@@H]2O[C@H](C)[C@@H](O[C@H]3C[C@@](C)(O)[C@@H](OC(=O)CC(C)C)[C@H](C)O3)[C@H](N(C)C)[C@H]2O)[C@@H](CC=O)C[C@@H](C)[C@@H](O[C@H]2CC[C@H](N(C)C)[C@@H](C)O2)/C=C/C=C/C[C@@H](C)OC(=O)C[C@H]1O [Isovaleryl spiramycin I, isovaleryl spiramycin I]",Relative Tumor Proliferation Rate (T/C),[1]; [6],29.11%
same,tumor growth inhibition rate,[1]; [6],70.14%
same,Relative Tumor Proliferation Rate (T/C),[1]; [7],81.60%
same,tumor growth inhibition rate,[1]; [7],16.10%
same,tumor volume and relative tumor volume compared with the model group,"[1]; HT-29, low, medium and high doses, P<0.05",significantly lower
same,Relative Tumor Proliferation Rate (T/C),[1]; [8],49.22%
same,tumor growth inhibition rate,[1]; [8],49.72%
same,Inhibition Rate (%),[1]; 25 mg/kg,16.10%
same,Tumor Weight,[1]; 25 mg/kg,1.97 ± 0.31 g
same,Inhibition Rate (%),[1]; 50 mg/kg,49.72%
same,Tumor Weight,[1]; 50 mg/kg,1.18 ± 0.34 g
same,Inhibition Rate (%),[1]; 100 mg/kg,70.14%
same,Tumor Weight,[1]; 100 mg/kg,0.70 ± 0.29 g
same,Relative Tumor Proliferation Rate (T/C),[1]; dose 25 mg/kg,81.60%
same,Relative Tumor Volume (RTV),[1]; dose 25 mg/kg,11.76 ± 4.03
same,Tumor Volume (mm3) (d 1),[1]; dose 25 mg/kg,162.77 ± 38.95 mm3
same,Tumor Volume (mm3) (d30),[1]; dose 25 mg/kg,1803.98 ± 271.55 mm3
same,Relative Tumor Proliferation Rate (T/C),[1]; dose 50 mg/kg,49.22%
same,Relative Tumor Volume (RTV),[1]; dose 50 mg/kg,7.09 ± 1.47
same,Tumor Volume (mm3) (d 1),[1]; dose 50 mg/kg,157.41 ± 37.31 mm3
same,Tumor Volume (mm3) (d30),[1]; dose 50 mg/kg,1109.16 ± 320.27 mm3
same,Relative Tumor Proliferation Rate (T/C),[1]; dose 100 mg/kg,29.11%
same,Relative Tumor Volume (RTV),[1]; dose 100 mg/kg,4.19 ± 2.23
same,Tumor Volume (mm3) (d 1),[1]; dose 100 mg/kg,169.25 ± 35.39 mm3
same,Tumor Volume (mm3) (d30),[1]; dose 100 mg/kg,648.93 ± 198.53 mm3
same,mouse weight compared with the model group,"[1]; mouse, in vivo",no significant changes
same,Body Weight (g) (d1),"[1]; mouse, in vivo, 25 mg/kg",21.41 ± 1.41 g
same,Body Weight (g) (d30),"[1]; mouse, in vivo, 25 mg/kg",20.98 ± 0.99 g
same,Body Weight (g) (d1),"[1]; mouse, in vivo, 50 mg/kg",21.31 ± 1.53 g
same,Body Weight (g) (d30),"[1]; mouse, in vivo, 50 mg/kg",20.56 ± 1.09 g
same,Body Weight (g) (d1),"[1]; mouse, in vivo, 100 mg/kg",20.77 ± 1.13 g
same,Body Weight (g) (d30),"[1]; mouse, in vivo, 100 mg/kg",21.19 ± 1.26 g
same,Inhibition Rate (tumor growth inhibition rate),[2]; [9],33.87%
same,Relative Tumor Proliferation Rate (T/C),[2]; [9],70.43%
same,Relative Tumor Volume (RTV),[2]; [9],13.78 ± 3.15
same,Tumor Volume (d 1),[2]; [9],127.59 ± 6.73 mm3
same,Tumor Volume (d 30),[2]; [9],1758.15 ± 412.68 mm3
same,Tumor Weight,[2]; [9],1.24 ± 0.51 g
same,Inhibition Rate (tumor growth inhibition rate),[2]; [10],51.33%
same,Relative Tumor Proliferation Rate (T/C),[2]; [10],49.14%
same,Relative Tumor Volume (RTV),[2]; [10],9.61 ± 3.15
same,Tumor Volume (d 1),[2]; [10],186.59 ± 39.40 mm3
same,Tumor Volume (d 30),[2]; [10],1706.14 ± 347.50 mm3
same,Tumor Weight,[2]; [10],0.91 ± 0.33 g
same,Inhibition Rate (tumor growth inhibition rate),[2]; [11],71.01%
same,Relative Tumor Proliferation Rate (T/C),[2]; [11],30.72%
same,Relative Tumor Volume (RTV),[2]; [11],6.01 ± 1.78
same,Tumor Volume (d 1),[2]; [11],175.94 ± 12.32 mm3
same,Tumor Volume (d 30),[2]; [11],1041.69 ± 247.71 mm3
same,Tumor Weight,[2]; [11],0.55 ± 0.21 g
same,tumor volume and relative tumor volume compared with the model group,"[2]; PC3, low, medium and high doses, P<0.05",significantly lower
same,mouse weight compared with the model group,"[2]; mouse, in vivo",no significant changes
same,Inhibition Rate (tumor growth inhibition rate),[3]; [12],22.84%
same,Relative Tumor Proliferation Rate (T/C),[3]; [12],69.71%
same,Relative Tumor Volume (RTV),[3]; [12],10.89 ± 2.52
same,Tumor Volume (d 1),[3]; [12],111.07 ± 8.47 mm3
same,Tumor Volume (d 30),[3]; [12],1213.38 ± 299.29 mm3
same,Tumor Weight,[3]; [12],1.79 ± 0.34 g
same,Inhibition Rate (tumor growth inhibition rate),[3]; [13],55.17%
same,Relative Tumor Proliferation Rate (T/C),[3]; [13],44.18%
same,Relative Tumor Volume (RTV),[3]; [13],6.90 ± 2.43
same,Tumor Volume (d 1),[3]; [13],116.00 ± 8.13 mm3
same,Tumor Volume (d 30),[3]; [13],807.45 ± 319.26 mm3
same,Tumor Weight,[3]; [13],1.04 ± 0.44 g
same,Inhibition Rate (tumor growth inhibition rate),[3]; [14],69.11%
same,Relative Tumor Proliferation Rate (T/C),[3]; [14],27.74%
same,Relative Tumor Volume (RTV),[3]; [14],4.33 ± 3.47
same,Tumor Volume (d 1),[3]; [14],111.91 ± 10.26 mm3
same,Tumor Volume (d 30),[3]; [14],458.55 ± 338.74 mm3
same,Tumor Weight,[3]; [14],0.72 ± 0.48 g
same,tumor volume and relative tumor volume compared with the model group,"[3]; MDA-MB-231, low, medium and high doses, P<0.05",significantly lower
same,mouse weight compared with the model group,"[3]; mouse, in vivo",no significant changes
same,IC50,[4],16.52 ± 1.26 µg/mL
same,IC50,[5],10.88 ± 0.05 µg/mL
